Test results taken from patent US20250101020A1, “SPIROCYCLIC LACTAM INHIBITORS” (Incyte Corporation, priority 2023, published 2025).
Where a name gives a salt, the structure may show the parent alone.

Experiments:
[1] = target: pseudo-kinase domain (JH2) of human V617F mutant JAK2 (Homo sapiens (Human), UniProt O60674, F794H/V617F/W659A/W777A); assay: JAK2 LanthaScreen JH2-V617F Binding Assay; settings: 50 nM tracer, 1 hour at 25° C.
Experimental: Example C. JAK2 LanthaScreen JH2-V617F Binding Assay
(§1) JAK2 JH2-V617F binding assay utilizes pseudo-kinase domain (JH2, amino-acids 536-812 with 3 surface mutations W659A, W777A, F794H) of human V617F mutant JAK2 expressed as C-terminal His-Avi-tagged, biotinylated protein in a baculovirus expression system (BPS Bioscience, Catalog #79498). The assay was conducted in black 384-well polystyrene plates in a final reaction volume of 20 μL. JAK2 JH2-V617F (0.26 nM) was incubated with compounds (100 nL serially diluted in DMSO) in the presence of 50 nM Fluorescent JAK2-JH2 Tracer (MedChem Express Catalog #HY-102055) and 0.25 nM Streptavidin-Tb cryptate (Cisbio Part #610SATLB) in assay buffer (50 mM Tris, pH=7.5, 10 mM MgCl2, 0.01% Brij-35, 0.1% BSA, 1 mM EGTA, 5% Glycerol and 5 mM DTT). Non-specific binding was accessed in the presence of 2 mM ATP. After incubation for 1 hour at 25° C., LanthaScreen signals were read on a PHERAstar FS plate reader (BMG LABTECH). Data was analyzed with IDBS XLfit and GraphPad Prism 5.0 software using a four parameter dose response curve to determine IC50 for each compound.

[2] = target: T1, catalytic domain (JH1) of human JAK2 (Homo sapiens (Human), UniProt O60674); assay: JAK2 LanthaScreen JH1 Binding Assay; settings: JAK2 JH1, 50 nM tracer, 2 hours at 25° C.
Experimental: Example A. JAK2 LanthaScreen JH1 Binding Assay
JAK2 JH1 binding assay utilizes catalytic domain (JH1, amino acids 826-1132) of human JAK2 expressed as N-terminal FLAG-tagged, biotinylated protein in a baculovirus expression system (Carna Biosciences, Product #08-445-20N). The assay was conducted in black 384-well polystyrene plates in a final reaction volume of 20 μL. JAK2 JH1 (1.5 nM) was incubated with compounds (100 nL serially diluted in DMSO) in the presence of 50 nM Fluorescent JAK2-JH1 Tracer and 0.5 nM Streptavidin-Tb cryptate (Cisbio Part #610SATLB) in assay buffer (50 mM Tris, pH=7.5, 10 mM MgCl2, 0.01% Brij-35, 0.1% BSA, 1 mM EGTA, 5% Glycerol and 5 mM DTT). Non-specific binding was accessed in the presence of 2 mM ATP. After incubation for 2 hours at 25° C., LanthaScreen signals were read on a PHERAstar FS plate reader (BMG LABTECH). Data was analyzed with IDBS XLfit and GraphPad Prism 5.0 software using a four parameter dose response curve to determine IC50 for each compound.
Target sequence in this assay (O60674 826-1132): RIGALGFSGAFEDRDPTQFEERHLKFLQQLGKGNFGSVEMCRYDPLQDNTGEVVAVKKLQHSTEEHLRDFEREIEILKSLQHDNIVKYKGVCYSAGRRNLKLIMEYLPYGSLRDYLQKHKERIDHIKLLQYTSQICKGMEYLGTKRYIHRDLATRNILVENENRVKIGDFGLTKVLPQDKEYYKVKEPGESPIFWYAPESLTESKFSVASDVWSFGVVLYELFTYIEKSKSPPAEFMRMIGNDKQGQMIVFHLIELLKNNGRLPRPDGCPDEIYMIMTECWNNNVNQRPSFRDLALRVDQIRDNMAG

[3] = target: T1, catalytic domain (JH1) of human JAK2; assay: JAK2 HTRF Enzyme Activity Assay; format: biochemical; settings: ATP 30 μM; read-out: ENZ 30UMATP IC50
Experimental: Example D. JAK2 HTRF Enzyme Activity Assay
JAK2 enzyme activity assays utilize catalytic domain (JH1, amino acids 808-1132) of human JAK2 expressed as N-terminal His-tagged protein in a baculovirus expression system (BPS Bioscience, Catalog #40450). The assays was conducted in black 384-well polystyrene plates in a final reaction volume of 20 μL. JAK2 (0.015 nM) was incubated with compounds (100 nL serially diluted in DMSO) in the presence of ATP (30 μM or 1 mM) and 500 nM Biotin-labeled EQEDEPEGDYFEWLE (SEQ ID NO.: 1) peptide (BioSource International, custom synthesis) in assay buffer (50 mM Tris, pH=7.5, 10 mM MgCl2, 0.01% Brij-35, 0.1% BSA, 1 mM EGTA, 5% Glycerol and 5 mM DTT) for 60 minutes at 25° C. The reactions were stopped by the addition of 10 μL of detection buffer (50 mM Tris, pH 7.8, 0.5 mg/mL BSA, 150 mM NaCl), supplemented with EDTA, LANCE Eu-W1024 anti-phosphotyrosine (PY20), (PerkinElmer, Catalog #AD0067) and Streptavidin SureLight APC (PerkinElmer Catalog #CR130-100), for a final concentration of 15 mM, 1.5 nM and 75 nM, respectively. HTRF signals were read after 30 minutes incubation at room temperature on a PHERAstar FS plate reader (BMG LABTECH). Data was analyzed with IDBS XLfit and GraphPad Prism 5.0 software using a four parameter dose response curve to determine IC50 for each compound.
Target sequence in this assay (O60674 808-1132): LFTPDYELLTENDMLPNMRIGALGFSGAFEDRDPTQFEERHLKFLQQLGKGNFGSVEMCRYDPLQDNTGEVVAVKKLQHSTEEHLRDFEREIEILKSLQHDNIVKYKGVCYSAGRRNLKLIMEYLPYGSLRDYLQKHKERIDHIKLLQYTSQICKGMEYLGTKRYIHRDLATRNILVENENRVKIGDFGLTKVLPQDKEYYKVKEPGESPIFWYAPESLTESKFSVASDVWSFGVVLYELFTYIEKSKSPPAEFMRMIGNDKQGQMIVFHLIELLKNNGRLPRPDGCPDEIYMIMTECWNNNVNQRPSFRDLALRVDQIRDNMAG

[4] = target: pseudo-kinase domain (JH2) of human Wild Type JAK2 (Homo sapiens (Human), UniProt O60674, F794H/W659A/W777A); assay: JAK2 LanthaScreen JH2-WT Binding Assay; settings: 50 nM tracer, 1 hour at 25° C.
Sequence of pseudo-kinase domain (JH2) of human Wild Type JAK2 (O60674 536-812 W659A/W777A/F794H): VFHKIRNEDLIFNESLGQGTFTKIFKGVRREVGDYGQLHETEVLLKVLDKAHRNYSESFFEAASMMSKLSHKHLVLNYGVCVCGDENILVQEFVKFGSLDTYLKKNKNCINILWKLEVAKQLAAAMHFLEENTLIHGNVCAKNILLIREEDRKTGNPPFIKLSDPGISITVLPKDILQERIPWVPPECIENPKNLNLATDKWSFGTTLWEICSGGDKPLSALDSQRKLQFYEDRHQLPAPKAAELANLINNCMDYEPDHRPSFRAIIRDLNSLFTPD
Experimental: Example B. JAK2 LanthaScreen JH2-WT Binding Assay
as §1, with “JH2-WT” for “JH2-V617F”, “Wild Type” for “V617F mutant”, “#79463).” for “#79498).”, “JH2-WT (0.145” for “JH2-V617F (0.26”

Sequence of pseudo-kinase domain (JH2) of human V617F mutant JAK2 (O60674 536-812 V617F/W659A/W777A/F794H): as the sequence (O60674 536-812 W659A/W777A/F794H) above, with V82F counted along it

SMILES	IC50 [1] [µM]	IC50 [2] [µM]	IC50 [3] [µM]	IC50 [4] [µM]
CCNC(=O)NC1CCC2(CC1)C(=O)N(C)c1cnc(Nc3ccc4cccc(C(F)(F)F)c4n3)cc12 (single isomer, unassigned) [Example 1, 1-Ethyl-3-((1s,4s)-1′-(methyl-d3)-2′-oxo-5′-((8-(trifluoromethyl)quinolin-2-yl)amino)-1′,2′-dihydrospiro[cyclohexane-1,3′-pyrrolo[2,3-c]pyridin]-4-yl)urea, trifluoroacetate salt]	≤ 0.1	> 2.5	> 2.5	–
[2H]C([2H])([2H])N1C(=O)C2(CCC(NC(=O)NCC)CC2)c2cc(Nc3ccc4cccc(C(F)(F)F)c4n3)ncc21 (single isomer, unassigned) [Example 1, 1-Ethyl-3-((1s,4s)-1′-(methyl-d3)-2′-oxo-5′-((8-(trifluoromethyl)quinolin-2-yl)amino)-1′,2′-dihydrospiro[cyclohexane-1,3′-pyrrolo[2,3-c]pyridin]-4-yl)urea, trifluoroacetate salt]	–	–	–	≤ 0.1
CCNC(=O)NC1CCC2(CC1)C(=O)N(C)c1cnc(Nc3ccc4cccc(C(F)(F)F)c4n3)cc12 (single isomer, unassigned) [Example 2, 1-Ethyl-3-((1r,4r)-1′-(methyl-d3)-2′-oxo-5′-((8-(trifluoromethyl)quinolin-2-yl)amino)-1′,2′-dihydrospiro[cyclohexane-1,3′-pyrrolo[2,3-c]pyridin]-4-yl)urea, trifluoroacetate salt]	–	–	–	≤ 0.1
[2H]C([2H])([2H])N1c2cnc(Nc3ccc4cccc(C(F)(F)F)c4n3)cc2[C@]2(C[C@@H](CNC(=O)OC)C2)C1=O [Example 3, Methyl (((1r,3r)-1′-(methyl-d3)-2′-oxo-5′-((8-(trifluoromethyl)quinolin-2-yl)amino)-1′,2′-dihydrospiro[cyclobutane-1,3′-pyrrolo[2,3-c]pyridin]-3-yl)methyl)carbamate, trifluoroacetate salt]	≤ 0.1	–	> 2.5	–
[2H]C([2H])([2H])N1c2cnc(Nc3ccc4cccc(C(F)(F)F)c4n3)cc2[C@]2(C[C@@H](CNC(=O)C3CC3)C2)C1=O [Example 4, N-(((1r,3r)-1′-(Methyl-d3)-2′-oxo-5′-((8-(trifluoromethyl)quinolin-2-yl)amino)-1′,2′-dihydrospiro[cyclobutane-1,3′-pyrrolo[2,3-c]pyridin]-3-yl)methyl)cyclopropanecarboxamide, trifluoroacetate salt]	≤ 0.1	–	> 2.5	–
[2H]C([2H])([2H])N1c2cnc(Nc3ccc4c(n3)c(-c3cnn(C(F)(F)F)c3)nn4C)cc2[C@]2(C[C@@H](CO)C2)C1=O [Example 5, (1r,3r)-3-(Hydroxymethyl)-1′-(methyl-d3)-5′-((1-methyl-3-(1-(trifluoromethyl)-1H-pyrazol-4-yl)-1H-pyrazolo[4,3-b]pyridin-5-yl)amino)spiro[cyclobutane-1,3′-pyrrolo[2,3-c]pyridin]-2′(1′H)-one, trifluoroacetate salt]	≤ 0.1	–	> 2.5	–
[2H]C([2H])([2H])N1c2cnc(Nc3ccc4c(n3)c(-c3cnn(C(F)(F)F)c3)nn4C)cc2[C@]2(C[C@@H](CNC(=O)OC)C2)C1=O [Example 6, Methyl (((1r,3r)-1′-(methyl-d3)-5′-((1-methyl-3-(1-(trifluoromethyl)-1H-pyrazol-4-yl)-1H-pyrazolo[4,3-b]pyridin-5-yl)amino)-2′-oxo-1′,2′-dihydrospiro[cyclobutane-1,3′-pyrrolo[2,3-c]pyridin]-3-yl)methyl)carbamate, trifluoroacetate salt]	≤ 0.1	–	> 2.5	–
[2H]C([2H])([2H])N1c2cnc(Nc3ccc4c(n3)c(-c3cnn(C(F)(F)F)c3)nn4C)cc2[C@]2(C[C@@H](CNC(=O)C3CC3)C2)C1=O [Example 7, N-(((1r,3r)-1′-(Methyl-d3)-5′-((1-methyl-3-(1-(trifluoromethyl)-1H-pyrazol-4-yl)-1H-pyrazolo[4,3-b]pyridin-5-yl)amino)-2′-oxo-1′,2′-dihydrospiro[cyclobutane-1,3′-pyrrolo[2,3-c]pyridin]-3-yl)methyl)cyclopropanecarboxamide, trifluoroacetate salt]	≤ 0.1	–	> 2.5	–
